According to patent US20260021061A1, “ARIADNE AND ANALOGS FOR THE TREATMENT OF NEUROLOGICAL AND NEUROMUSCLAR DISORDERS” (priority 2022, published 2026):
Where a name gives a salt, the structure may show the parent alone. Read-outs that look alike come from different tables or passages of the source.

Columns and labels:
C57BL/6J mice [1] = assay: Head twitch response (HTR) in mice; format: in vivo, mouse; conditions: s.c.
Procedure: All samples were prepared the same day testing was performed. Solids were weighed into small vials and dissolved in USP grade 0.85% saline with addition of 2 molar equivalents of glacial acetic acid. Sonication and gentle heating were applied until complete dissolution. The compounds were subsequently filtered through 0.45 μm filters into a new glass vial. All compounds were administered at a 1 mg/kg subcutaneous dose at a volume of 10 mL/kg of body weight. Volinanserin hydrochloride salt (MDL 100907) was purchased from Toronto Research Chemicals.
All experimental procedures involving animals were approved by an Institutional Animal Care and Use Committee (IACUC) and adhered to principles described in the National Institutes of Health Guide for the Care and Use of Laboratory Animals. The studies were conducted at AAALAC accredited facilities. Animals received regular veterinary care (weekly by institutional veterinarians) including daily health monitoring (by experimenters) of the animals (observing home cage behaviors, nesting, and body weight). All procedures were designed to minimize any stress/distress. Healthy adult male mice C57BL/6J (8-12 weeks, 26-33 g) were purchased from the Jackson Laboratory (Bar Harbor, ME) and housed 5 mice per cage with food and water available ad libitum. Mice were maintained on a 12-h light/dark cycle (lights on 7:00-19:00) and all testing was done in the light cycle. Temperature was kept constant at 22±2° C., and relative humidity was maintained at 50±5%
The head-twitch response evaluation was performed by a trained observer who was blinded to both drug and dose. Mice were moved to the testing room 30 min before the experiment to allow for acclimation. The body weight of each mouse was recorded. Mice were administered either a 1, 3, 10, or 30 mg/kg s.c. dose of compound solution (volume of injection 260-330 μL based on body weight). […] The total number of head-twitches over the 15 minute period were recorded. Five mice were used per dose.
DOI was tested at the doses of 0.3, 1, 3, and 10 mg/kg (s.c., 5 mice per dose) and testing began immediately after administration of the compound. Ariadne was tested at the doses of 1, 3, 10, and 30 mg/kg (s.c., 5 mice per dose) and there was a 10 min interval between treatment and testing.

C57BL/6J mice [2] = assay: Open field locomotion in mice; format: in vivo, mouse
5-HT2A [3] = biological target: T1, 5-HT2A (Homo sapiens, UniProt P28223); assay: IP1 agonism (IP1 formation assay), Cerep, Eurofins; format: cell-based; set-up: purchased Cerep, Eurofins (contract assay); conditions: duplicate averages only
T1 sequence (P28223 whole entry): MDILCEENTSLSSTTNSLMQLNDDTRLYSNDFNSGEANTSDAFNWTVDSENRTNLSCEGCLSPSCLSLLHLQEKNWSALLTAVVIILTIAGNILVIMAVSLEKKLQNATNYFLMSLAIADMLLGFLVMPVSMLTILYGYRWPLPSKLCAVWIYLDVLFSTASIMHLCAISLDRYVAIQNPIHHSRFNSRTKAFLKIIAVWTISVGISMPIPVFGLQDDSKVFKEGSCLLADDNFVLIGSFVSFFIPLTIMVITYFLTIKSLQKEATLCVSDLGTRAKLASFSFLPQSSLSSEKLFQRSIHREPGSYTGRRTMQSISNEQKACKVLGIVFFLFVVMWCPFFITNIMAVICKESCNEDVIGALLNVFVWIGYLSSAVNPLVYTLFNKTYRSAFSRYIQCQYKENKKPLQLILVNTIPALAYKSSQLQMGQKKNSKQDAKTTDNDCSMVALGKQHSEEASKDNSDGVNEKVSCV
Excerpt: (§1) FIGS. 8A-B Comparison of 5-HT2A (a) and 5-HT2B (b) receptor in IP1 formation assay for selected compounds, performed at Cerep, Eurofins.
(§2) IP1 agonism summary for selected compounds (duplicate averages only), performed at Cerep, Eurofins.

5-HT2B [4] = biological target: T2, 5-HT2B (Homo sapiens, UniProt P41595); assay: IP1 agonism (IP1 formation assay), Cerep, Eurofins; format: cell-based; set-up: purchased Cerep, Eurofins (contract assay); conditions: duplicate averages only
T2 sequence (P41595 whole entry): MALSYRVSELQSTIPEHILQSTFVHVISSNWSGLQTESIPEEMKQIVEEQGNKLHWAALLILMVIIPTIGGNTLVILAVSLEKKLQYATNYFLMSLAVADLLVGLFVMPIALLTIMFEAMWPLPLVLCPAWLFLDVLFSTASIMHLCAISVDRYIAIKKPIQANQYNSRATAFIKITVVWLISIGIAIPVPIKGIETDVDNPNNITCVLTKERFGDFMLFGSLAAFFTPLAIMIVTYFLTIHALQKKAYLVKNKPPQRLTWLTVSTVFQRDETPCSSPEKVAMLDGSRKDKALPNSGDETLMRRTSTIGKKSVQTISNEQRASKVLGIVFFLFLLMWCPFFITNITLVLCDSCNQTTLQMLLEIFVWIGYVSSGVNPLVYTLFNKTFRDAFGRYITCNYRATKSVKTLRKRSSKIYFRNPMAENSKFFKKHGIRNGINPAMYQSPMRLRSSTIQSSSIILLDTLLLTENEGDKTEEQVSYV
Excerpt: as §1, §2

5-HT2A [5] = biological target: T1, 5-HT2A; assay: G protein (Gq) dissociation BRET assay; format: cell-based; set-up: host or cells: HEK293T (ATCC CRL-11268)
5-HT2C receptor = biological target: T3, 5-HT2C receptor (Homo sapiens, UniProt P28335); assay: G protein (Gq) dissociation BRET assay; conditions: read-out: Emax/Gq
T3 sequence (P28335 33-458): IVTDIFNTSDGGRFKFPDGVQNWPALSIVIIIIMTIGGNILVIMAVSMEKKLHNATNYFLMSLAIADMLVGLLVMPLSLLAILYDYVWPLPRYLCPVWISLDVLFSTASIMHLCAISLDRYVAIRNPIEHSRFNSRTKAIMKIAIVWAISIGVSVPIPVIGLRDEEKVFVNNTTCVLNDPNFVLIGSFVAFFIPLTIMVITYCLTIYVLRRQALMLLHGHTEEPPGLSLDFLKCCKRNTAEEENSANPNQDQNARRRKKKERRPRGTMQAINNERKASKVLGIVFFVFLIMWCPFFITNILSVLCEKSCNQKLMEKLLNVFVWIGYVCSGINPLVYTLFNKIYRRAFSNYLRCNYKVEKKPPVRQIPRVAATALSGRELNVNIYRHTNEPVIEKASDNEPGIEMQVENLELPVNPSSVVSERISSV
Procedure: (§3) All BRET assays were conducted using BRET2 in HEK293T cells (ATCC CRL-11268; mycoplasma-free), which were subcultured in high-glucose DMEM (VWR) supplemented with 10% FBS (Life Technologies).
(§4) Constructs in G protein-dissociation BRET assays were derived from the codon-optimized Tango pcDNA3.1 library (Addgene) with V2tail/TEV/tTA encoding regions deleted to yield “de-Tango” constructs. […] All Gα-Rluc8, Beta, and GFP2-γ constructs were derived from the TRUPATH pcDNA5/FRT/TO library (Addgene).
(§5) Approximately 48 hours before assays, cells were transfected using a reverse transfection method and plated in 1% dFBS at an approximate density of 15,000 cells per well into poly-L-lysine-coated 384-well white assay plates (Grenier Bio-One). For G protein-dissociation assays, cells were transfected in a 1:1:1:1 ratio of receptor: Gα-Rluc8: Beta: GFP2-γ constructs. […] All transfections were prepared in Opti-MEM (Invitrogen) and used a 3:1 ratio of TransIT-2020 (Mirus) uL:ug total DNA.
(§6) On the day of the assay, plates were decanted and 20 uL of drug buffer per well (1×HBSS, 20 mM HEPES, pH 7.4) was added using a Multidrop (ThermoFisher Scientific), and plates were allowed to equilibrate at 37° C. in a humidified incubator before receiving drug stimulation. Drug dilutions of all compounds were performed in McCorvy buffer (1×HBSS, 20 mM HEPES, pH 7.4, supplemented with 0.3% BSA fatty acid free (GoldBio), and 0.03% ascorbic acid). […] Next, plates were incubated at 37° C. in a humidified incubator for 60 minutes or specified time point. Before reading, addition of coelenterazine 400a (5 uM final concentration; Nanolight Technology) was performed by the [sequence]. Immediately after, plates were read at 400 nm Rluc and fluorescent GFP2 emission at 510 nm for BRET2 at 0.8 second per well using a PheraStarFSX (BMB Lab Tech).
(§7) The BRET ratios of 510/400 luminescence were calculated per well and were plotted as a function of drug concentration using Graphpad Prism 5 or 9 (Graphpad Software Inc., San Diego, CA). Data were normalized to % positive control stimulation and analyzed using nonlinear regression “log(agonist) vs. response” to yield Emax and EC50 parameter estimates.

5-HT2B [6] = biological target: T2, 5-HT2B; assay: G protein (Gq) dissociation BRET assay
Procedure: as §3, §4, §5, §6, §7

humans = conditions: per oral administration; cited from earlier work
5-HT2A [7] = biological target: T1, 5-HT2A; assay: Radioligand displacement assay; format: binding
Procedure: Therefore, an orthogonal assay measuring calcium flux was also performed for the 5-HT2 receptors (Klein et al., 2020).

[8] = EC50 (5-HT2B) (M), Table 7, IP1 agonism
[9] = EC50 (5-HT2A) (M), Table 7, IP1 agonism

CCCc1cc(OC)c(CC(C)N)cc1OC (racemic) [Compound 44, 1-(2,5-dimethoxy-4-propylphenyl) propan-2-amine, reference compound]
HTR response (C57BL/6J mice [1]): robust dose-dependent HTR response | dose of maximum (peak) HTR (C57BL/6J mice [1]): 1 mg/kg | time to maximum HTR frequency post-drug administration (C57BL/6J mice [1]): 10 min | time in the center of the arena (C57BL/6J mice [2]; open field): trend for spending less time in the center | effects on locomotion (C57BL/6J mice [2]; s.c., trending toward increased locomotion at HTR peak dose (1 mg/kg)): minor to no effects on locomotion

CCCc1cc(OC)c(CC(N)CC)cc1OC (centres unmarked) [Compound 42, 1-(2,5-dimethoxy-4-propylphenyl)butan-2-amine]
EC50 (5-HT2A [3]; 5-HT2a (IP1 agonism), Table 2): 2.1e-07 M

CCC(N)Cc1cc(OC)c(C(C)(F)F)cc1OC (centres unmarked) [Compound 50, 1-(4-(1,1-difluoroethyl)-2,5-dimethoxyphenyl)butan-2-amine]
EC50 (5-HT2B [4]; [8]): 1.1e-07 M | EC50 (5-HT2A [3]; [9]): 2.5e-08 M

CCSc1cc(OC)c(CC(N)CC)cc1OC (centres unmarked) [Compound 27, 1-(4-(ethylthio)-2,5-dimethoxyphenyl)butan-2-amine]
EC50 (5-HT2B [4]; 5-HT2b (IP1 agonism), Table 2): 6.3e-07 M | EC50 (5-HT2A [3]; 5-HT2a (IP1 agonism), Table 2): 5.3e-08 M

CCC(N)Cc1cc(OC)c(COC)cc1OC (centres unmarked) [Compound 37, 1-(2,5-dimethoxy-4-(methoxymethyl)phenyl)butan-2-amine]
HTR response (C57BL/6J mice [1]): only residual HTR | less potent at 5-HT2A compared to Ariadne (5-HT2A [5]; Gq dissociation): approximately 2 fold | Emax (5-HT2A [5]; Gq dissociation BRET, normalized to 5-HT, read-out: Emax (Emax/Gq) relative to 5-HT): 78% | Emax (5-HT2C receptor): 82% | potency at 5-HT2B compared to Ariadne (5-HT2B [6]; Gq dissociation): twice as potent | Emax (5-HT2B [6]; read-out: Emax/Gq): 43%

COc1cc(CC(C)N)c(OC)cc1C (centres unmarked) [DOM, 2,5 Dimethoxy-4-methylamphetamine, reference compound]
potency in humans relative to mescaline (humans): approximately 100 times

COc1cc(CC(N)C2CC2)c(OC)cc1C (centres unmarked) [Compound 38, 1-cyclopropyl-2-(2,5-dimethoxy-4-methylphenyl)ethan-1-amine]
EC50 (5-HT2B [4]; Table 2, read-out: 5-HT2b (IP1 agonism)): 2.1e-05 M | EC50 (5-HT2A [3]; Table 2, read-out: 5-HT2a (IP1 agonism)): 9.7e-06 M

CC[C@H](N)Cc1cc(OC)c(C)cc1OC [(S)-Ariadne]
Ki (5-HT2A [7]): 220 nM

CCC(N)Cc1cc(OC)c(C2CC2)cc1OC (centres unmarked) [Compound 30, 1-(4-cyclopropyl-2,5-dimethoxyphenyl)butan-2-amine]
EC50 (5-HT2A [3]; 5-HT2a (IP1 agonism), Table 2): 3.7e-06 M

CCC(N)Cc1c(OC)cc(C)cc1OC (centres unmarked) [Compound 40, 1-(2,6-dimethoxy-4-methylphenyl)butan-2-amine]
EC50 (5-HT2A [3]; 5-HT2a (IP1 agonism), Table 2): 1e-05 M

CCOc1cc(CC(N)CC)c(OC)cc1C(F)(F)F (centres unmarked) [Compound 36, 1-(5-ethoxy-2-methoxy-4-(trifluoromethyl)phenyl)butan-2-amine]
EC50 (5-HT2B [4]; 5-HT2b (IP1 agonism), Table 2): 9.5e-07 M | EC50 (5-HT2A [3]; 5-HT2a (IP1 agonism), Table 2): 2.8e-07 M

CCC(N)Cc1cc(OC)c(SC)cc1OC (centres unmarked) [Compound 28, 1-(2,5-dimethoxy-4-(methylthio)phenyl)butan-2-amine]
EC50 (5-HT2B [4]; 5-HT2b (IP1 agonism), Table 2): 6.6e-08 M | EC50 (5-HT2A [3]; 5-HT2a (IP1 agonism), Table 2): 1.6e-07 M

CCc1cc(OC)c(CC(N)CC)cc1OC (centres unmarked) [Compound 35, 1-(4-ethyl-2,5-dimethoxyphenyl)butan-2-amine]
EC50 (5-HT2B [4]; 5-HT2b (IP1 agonism), Table 2): 5.7e-07 M | EC50 (5-HT2A [3]; 5-HT2a (IP1 agonism), Table 2): 1.9e-06 M

CCC(N)Cc1cc(OC)c(S(C)(=O)=O)cc1OC (centres unmarked) [Compound 33, 1-(2,5-dimethoxy-4-(methylsulfonyl)phenyl)butan-2-amine trifluoroacetate]
EC50 (5-HT2B [4]; 5-HT2b (IP1 agonism), Table 2): 2.5e-05 M | EC50 (5-HT2A [3]; 5-HT2a (IP1 agonism), Table 2): 3.4e-06 M

CCC(N)Cc1cc(OC)c(C(F)(F)CC)cc1OC (centres unmarked) [Compound 53, 1-(4-(1,1-difluoropropyl)-2,5-dimethoxyphenyl)butan-2-amine]
EC50 (5-HT2B [4]; [8]): 1.9e-07 M | EC50 (5-HT2A [3]; [9]): 5.7e-08 M

CCC(N)Cc1cc(OC)c(C#N)cc1OC (centres unmarked) [Compound 4, 4-(2-aminobutyl)-2,5-dimethoxybenzonitrile trifluoroacetate]
EC50 (5-HT2A [3]; 5-HT2a (IP1 agonism), Table 2): 1.1e-05 M

CCCC(N)Cc1cc(OC)c(C)cc1OC (centres unmarked) [Compound 39, 1-(2,5-dimethoxy-4-methylphenyl) pentan-2-amine]
HTR response (C57BL/6J mice [1]): indistinguishable from vehicle | EC50 (5-HT2B [4]; 5-HT2b (IP1 agonism), Table 2): 2.3e-05 M

CCC(N)Cc1cc(OC)c(CC(C)(F)F)cc1OC (centres unmarked) [Compound 58, 1-(4-(2,2-difluoropropyl)-2,5-dimethoxyphenyl)butan-2-amine]
EC50 (5-HT2A [3]; [9]): 4.3e-06 M

CCC(N)Cc1cc(OC)c(I)cc1OC (centres unmarked) [Compound 34, 1-(4-iodo-2,5-dimethoxyphenyl)butan-2-amine]
EC50 (5-HT2A [5]; EC50 (EC50/Gq), Gq dissociation, Gq dissociation BRET): 16 nM | increase in Gq potency compared to Ariadne (5-HT2A [5]; EC50/Gq comparison): > 10 fold | EC50 (5-HT2B [4]; 5-HT2b (IP1 agonism), Table 2): 1.8e-05 M | EC50 (5-HT2A [3]; 5-HT2a (IP1 agonism), Table 2): 9.7e-06 M

CCC(N)Cc1cc(OC)c(Br)cc1OC (centres unmarked) [Compound 31, 1-(4-bromo-2,5-dimethoxyphenyl)butan-2-amine]
EC50 (5-HT2B [4]; 5-HT2b (IP1 agonism), Table 2): 5.5e-06 M | EC50 (5-HT2A [3]; 5-HT2a (IP1 agonism), Table 2): 9e-08 M

CCC(N)Cc1cc(OC)c(Cl)cc1OC (centres unmarked) [Compound 41, 1-(4-chloro-2,5-dimethoxyphenyl)butan-2-amine]
EC50 (5-HT2B [4]; 5-HT2b (IP1 agonism), Table 2): 1.4e-05 M | EC50 (5-HT2A [3]; 5-HT2a (IP1 agonism), Table 2): 1.9e-07 M
